Read-outs that look alike come from different tables or passages of the source.
Assays:
Assay type in all cases: cell-based
[1] = target: T1, human TLR7 (Homo sapiens, UniProt Q9NYK1); experiment: TLR7 inhibition reporter assay (HEK-Blue cells, secreted embryonic alkaline phosphatase reporter); conditions: HEK-Blue cells overexpressing human TLR7, stimulated with gardiquimod 7.5 μM; read-out: TLR 7 IC50
T1 construct: host or cells: HEK-Blue cells (HEK293-derived reporter line)
T1 sequence (Q9NYK1 27-1049): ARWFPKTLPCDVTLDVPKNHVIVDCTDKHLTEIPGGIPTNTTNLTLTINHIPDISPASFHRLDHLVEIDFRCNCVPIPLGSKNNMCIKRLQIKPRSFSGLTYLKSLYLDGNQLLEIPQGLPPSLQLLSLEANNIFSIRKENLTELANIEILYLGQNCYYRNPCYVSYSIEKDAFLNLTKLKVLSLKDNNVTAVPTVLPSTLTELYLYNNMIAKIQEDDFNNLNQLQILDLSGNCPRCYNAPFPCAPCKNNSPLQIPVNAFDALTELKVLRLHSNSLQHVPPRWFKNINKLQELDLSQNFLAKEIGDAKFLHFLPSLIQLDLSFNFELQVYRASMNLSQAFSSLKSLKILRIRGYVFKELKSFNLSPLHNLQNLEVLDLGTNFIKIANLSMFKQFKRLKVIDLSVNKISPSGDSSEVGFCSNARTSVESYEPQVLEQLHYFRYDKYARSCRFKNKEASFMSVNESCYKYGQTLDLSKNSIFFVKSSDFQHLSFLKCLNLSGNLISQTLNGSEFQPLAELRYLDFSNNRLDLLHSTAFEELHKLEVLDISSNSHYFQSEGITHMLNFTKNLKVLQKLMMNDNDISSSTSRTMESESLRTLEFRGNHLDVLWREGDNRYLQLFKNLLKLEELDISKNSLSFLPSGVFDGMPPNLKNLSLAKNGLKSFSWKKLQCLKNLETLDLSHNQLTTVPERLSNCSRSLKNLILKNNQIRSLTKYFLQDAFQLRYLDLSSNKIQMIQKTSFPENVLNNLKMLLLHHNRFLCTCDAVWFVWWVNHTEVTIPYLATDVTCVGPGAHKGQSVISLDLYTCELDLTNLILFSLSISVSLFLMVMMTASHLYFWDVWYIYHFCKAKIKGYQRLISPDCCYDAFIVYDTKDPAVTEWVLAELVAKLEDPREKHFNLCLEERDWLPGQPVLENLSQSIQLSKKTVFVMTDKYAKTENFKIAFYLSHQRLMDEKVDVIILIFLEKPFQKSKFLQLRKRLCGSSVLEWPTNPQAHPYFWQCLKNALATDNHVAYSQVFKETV
Outline: (§1)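 HEK-Blue cells expressing human TLR7, TLR8 or TLR9 with an NF-κB/AP-1-driven SEAP reporter were pretreated with compound (0.05 nM–50 μM final) for 30 min at room temperature. Agonists were gardiquimod 7.5 μM for TLR7, R848 15.9 μM for TLR8 and ODN2006 5 nM for TLR9. SEAP was read after 22 h at 37 °C, and inhibition was calculated relative to agonist-plus-DMSO and known-inhibitor controls.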

[2] = target: T2, human TLR9 (Homo sapiens, UniProt Q9NR96); experiment: TLR9 inhibition reporter assay (HEK-Blue cells, secreted embryonic alkaline phosphatase reporter)
T2 construct: host or cells: HEK-Blue cells (HEK293-derived reporter line)
T2 sequence (Q9NR96 26-1032): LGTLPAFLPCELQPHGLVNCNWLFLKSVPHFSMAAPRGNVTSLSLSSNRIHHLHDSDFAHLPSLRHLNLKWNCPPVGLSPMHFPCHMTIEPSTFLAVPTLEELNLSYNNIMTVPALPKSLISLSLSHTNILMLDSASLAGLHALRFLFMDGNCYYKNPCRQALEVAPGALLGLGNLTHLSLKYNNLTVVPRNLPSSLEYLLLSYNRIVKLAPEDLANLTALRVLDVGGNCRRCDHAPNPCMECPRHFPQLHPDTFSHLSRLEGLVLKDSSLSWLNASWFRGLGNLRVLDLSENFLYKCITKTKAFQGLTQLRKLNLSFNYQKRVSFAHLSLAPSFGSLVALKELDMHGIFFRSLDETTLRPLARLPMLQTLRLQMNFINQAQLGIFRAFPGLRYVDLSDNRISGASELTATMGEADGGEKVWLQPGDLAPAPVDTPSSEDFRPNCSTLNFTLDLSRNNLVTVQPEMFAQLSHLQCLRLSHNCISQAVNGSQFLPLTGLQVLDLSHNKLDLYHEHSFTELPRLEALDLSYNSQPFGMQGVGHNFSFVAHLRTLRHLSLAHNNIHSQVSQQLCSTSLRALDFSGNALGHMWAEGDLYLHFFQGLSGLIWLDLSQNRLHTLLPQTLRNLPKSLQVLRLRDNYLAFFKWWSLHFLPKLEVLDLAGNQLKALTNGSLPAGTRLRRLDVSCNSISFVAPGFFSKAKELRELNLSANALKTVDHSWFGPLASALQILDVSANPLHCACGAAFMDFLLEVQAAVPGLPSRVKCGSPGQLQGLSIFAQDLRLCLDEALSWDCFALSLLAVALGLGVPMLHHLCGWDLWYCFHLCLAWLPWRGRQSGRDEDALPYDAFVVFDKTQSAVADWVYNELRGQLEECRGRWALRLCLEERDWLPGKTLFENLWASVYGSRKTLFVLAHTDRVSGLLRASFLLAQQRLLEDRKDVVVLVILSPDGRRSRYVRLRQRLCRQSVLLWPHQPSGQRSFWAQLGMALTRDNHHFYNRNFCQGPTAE
Outline: as §1

[3] = target: T3, human TLR8 (Homo sapiens, UniProt Q9NR97); experiment: TLR8 inhibition reporter assay (HEK-Blue cells, secreted embryonic alkaline phosphatase reporter); conditions: HEK-Blue cells overexpressing human TLR8, stimulated with R848 15.9 μM; read-out: TLR 8 IC50
T3 construct: host or cells: HEK-Blue cells (HEK293-derived reporter line)
T3 sequence (Q9NR97 27-1041): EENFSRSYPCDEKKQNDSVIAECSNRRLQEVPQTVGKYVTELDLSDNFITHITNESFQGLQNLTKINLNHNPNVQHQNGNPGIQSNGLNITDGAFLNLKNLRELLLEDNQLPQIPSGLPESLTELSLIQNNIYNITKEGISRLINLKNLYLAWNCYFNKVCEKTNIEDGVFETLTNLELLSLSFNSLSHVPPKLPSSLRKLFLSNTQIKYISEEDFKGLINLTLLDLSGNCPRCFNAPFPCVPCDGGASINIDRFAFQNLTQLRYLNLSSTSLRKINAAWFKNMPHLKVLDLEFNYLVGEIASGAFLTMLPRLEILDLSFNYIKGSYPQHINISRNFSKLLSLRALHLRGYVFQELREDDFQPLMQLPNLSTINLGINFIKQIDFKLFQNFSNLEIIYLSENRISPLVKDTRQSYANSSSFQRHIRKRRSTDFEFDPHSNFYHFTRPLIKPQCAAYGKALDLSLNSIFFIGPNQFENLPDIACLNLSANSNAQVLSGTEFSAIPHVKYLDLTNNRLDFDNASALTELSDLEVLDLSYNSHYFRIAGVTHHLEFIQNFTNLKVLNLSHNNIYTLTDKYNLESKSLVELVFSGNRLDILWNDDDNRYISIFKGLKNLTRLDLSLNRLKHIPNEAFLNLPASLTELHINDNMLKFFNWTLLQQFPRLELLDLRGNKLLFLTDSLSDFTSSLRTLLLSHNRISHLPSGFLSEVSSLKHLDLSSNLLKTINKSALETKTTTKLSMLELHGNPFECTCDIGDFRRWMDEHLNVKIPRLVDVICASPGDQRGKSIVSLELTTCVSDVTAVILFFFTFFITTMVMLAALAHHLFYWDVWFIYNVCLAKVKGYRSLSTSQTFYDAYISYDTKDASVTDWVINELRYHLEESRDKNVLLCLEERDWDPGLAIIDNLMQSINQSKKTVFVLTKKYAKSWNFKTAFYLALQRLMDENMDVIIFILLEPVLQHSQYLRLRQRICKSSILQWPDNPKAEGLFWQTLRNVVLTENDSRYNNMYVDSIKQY
Outline: as §1

[4] = HEK-Blue cells overexpressing human TLR9, stimulated with ODN2006 5 nM, read-out: TLR 9 IC50
[5] = HEK-Blue human TLR9 reporter cells

| Compound | IC50 [1] [nM] | IC50 [2, 4] [nM] | IC50 [2, 5] [nM] | IC50 [3] [nM] |
| --- | --- | --- | --- | --- |
| Cc1cc(C2CCN(C3CCN(C4CCC4)CC3)CC2)cc2c1nc(-c1ccc(S(C)(=O)=O)c(F)c1)n2C [Example 337, 6-(1′-cyclobutyl-[1,4′-bipiperidin]-4-yl)-2-(3-fluoro-4-(methylsulfonyl)phenyl)-1,4-dimethyl-1H-benzo[d]imidazole] | 1200 | 53 | 53 | > 50000 |
| Cc1cc(C2CCN(C3CCN(CC4CC4)CC3)CC2)cc2c1nc(-c1ccc(S(C)(=O)=O)c(F)c1)n2C [Example 338, 6-(1′-(cyclopropylmethyl)-[1,4′-bipiperidin]-4-yl)-2-(3-fluoro-4-(methylsulfonyl)phenyl)-1,4-dimethyl-1H-benzo[d]imidazole] | 3800 | 258 | 260 | > 50000 |
| Cc1cc(C2CCN(C3CCN(C4CC4)CC3)CC2)cc2c1nc(-c1ccc(S(C)(=O)=O)c(F)c1)n2C [Example 339, 6-(1′-cyclopropyl-[1,4′-bipiperidin]-4-yl)-2-(3-fluoro-4-(methylsulfonyl)phenyl)-1,4-dimethyl-1H-benzo[d]imidazole] | 12700 | 343 | 340 | > 25000 |
| Cc1cc(C2CCN(C3CC4CCC(C3)N4CC3CC3)CC2)cc2c1nc(-c1ccc(S(C)(=O)=O)c(F)c1)n2C (centres unmarked) [Example 341, 6-(1-(8-(cyclopropylmethyl)-8-azabicyclo[3.2.1]octan-3-yl)piperidin-4-yl)-2-(3-fluoro-4-(methylsulfonyl)phenyl)-1,4-dimethyl-1H-benzo[d]imidazole] | 2200 | 37 | 37 | 16700 |
| Cc1cc(C2CCN(C3CC4CCC(C3)N4CC(C)C)CC2)cc2c1nc(-c1ccc(S(C)(=O)=O)c(F)c1)n2C (centres unmarked) [Example 342, 2-(3-fluoro-4-(methylsulfonyl)phenyl)-6-(1-(8-isobutyl-8-azabicyclo[3.2.1]octan-3-yl)piperidin-4-yl)-1,4-dimethyl-1H-benzo[d]imidazole] | 12700 | 123 | 120 | > 25000 |
| Cc1cc(C2CCN(C3CCN(CC(C)C)CC3)CC2)cc2c1nc(-c1ccc(S(C)(=O)=O)c(F)c1)n2C [Example 343, 2-(3-fluoro-4-(methylsulfonyl)phenyl)-6-(1′-isobutyl-[1,4′-bipiperidin]-4-yl)-1,4-dimethyl-1H-benzo[d]imidazole] | 12600 | 156 | 160 | > 25000 |
| Cc1cc(C2CCN(C3CC4CCC(C3)N4C(C)C)CC2)cc2c1nc(-c1ccc(S(C)(=O)=O)c(F)c1)n2C (centres unmarked) [Example 344, 2-(3-fluoro-4-(methylsulfonyl)phenyl)-6-(1-(8-isopropyl-8-azabicyclo[3.2.1]octan-3-yl)piperidin-4-yl)-1,4-dimethyl-1H-benzo[d]imidazole] | 10800 | 12.4 | 120 | > 50000 |
| Cc1cc(C2CCN(C3CC4CCC(C3)N4CC(C)C)CC2)cc2[nH]c(-c3ccc(S(C)(=O)=O)c(F)c3)nc12 (centres unmarked) [Example 346, 2-(3-fluoro-4-(methylsulfonyl)phenyl)-6-(1-(8-isobutyl-8-azabicyclo[3.2.1]octan-3-yl)piperidin-4-yl)-4-methyl-1H-benzo[d]imidazole] | 7600 | 56 | 56 | > 25000 |
| COc1cc(-c2nc3c(C)cc(C4CCN(C5CCN(CC(C)C)CC5)CC4)cc3n2C)cn2ncnc12 [Example 353, 6-(6-(1′-isobutyl-[1,4′-bipiperidin]-4-yl)-1,4-dimethyl-1H-benzo[d]imidazol-2-yl)-8-methoxy-[1,2,4]triazolo[1,5-a]pyridine] | 100 | 16 | 16 | 8200 |
| COc1cc(-c2nc3c(C)cc(C4CCN(C5CC6CCC(C5)N6C5CC5)CC4)cc3n2C)cn2ncnc12 (centres unmarked) [Example 354, 6-(6-(1-(8-cyclopropyl-8-azabicyclo[3.2.1]octan-3-yl)piperidin-4-yl)-1,4-dimethyl-1H-benzo[d]imidazol-2-yl)-8-methoxy-[1,2,4]triazolo[1,5-a]pyridine] | 7500 | 85 | 85 | 700 |
| COc1cc(-c2nc3c(C)cc(C4CCN(C5CC6CCC(C5)N6C(C)C)CC4)cc3n2C)cn2ncnc12 (centres unmarked) [Example 357, 6-(6-(1-(8-isopropyl-8-azabicyclo[3.2.1]octan-3-yl)piperidin-4-yl)-1,4-dimethyl-1H-benzo[d]imidazol-2-yl)-8-methoxy-[1,2,4]triazolo[1,5-a]pyridine] | 300 | 32 | 32 | 7900 |

Source: patent US12492188B2, “1H-benzo[D]imidazole derivatives as TLR9 inhibitors for the treatment of fibrosis” (BRISTOL-MYERS SQUIBB COMPANY, priority 2020, dated 2025)
